Measurements published in ChEMBL document CHEMBL5647690, “Inhibition of demethylases by GSK-J1/J4” (Nature, 2014).

Experiments:
[1] = target: T1, Lysine-specific demethylase 2B (Homo sapiens, UniProt Q8NHM5); test: Inhibition of KDM2B (1 to 650 residues)(unknown origin) by Alphalisa assay
T1 sequence (Q8NHM5 whole entry): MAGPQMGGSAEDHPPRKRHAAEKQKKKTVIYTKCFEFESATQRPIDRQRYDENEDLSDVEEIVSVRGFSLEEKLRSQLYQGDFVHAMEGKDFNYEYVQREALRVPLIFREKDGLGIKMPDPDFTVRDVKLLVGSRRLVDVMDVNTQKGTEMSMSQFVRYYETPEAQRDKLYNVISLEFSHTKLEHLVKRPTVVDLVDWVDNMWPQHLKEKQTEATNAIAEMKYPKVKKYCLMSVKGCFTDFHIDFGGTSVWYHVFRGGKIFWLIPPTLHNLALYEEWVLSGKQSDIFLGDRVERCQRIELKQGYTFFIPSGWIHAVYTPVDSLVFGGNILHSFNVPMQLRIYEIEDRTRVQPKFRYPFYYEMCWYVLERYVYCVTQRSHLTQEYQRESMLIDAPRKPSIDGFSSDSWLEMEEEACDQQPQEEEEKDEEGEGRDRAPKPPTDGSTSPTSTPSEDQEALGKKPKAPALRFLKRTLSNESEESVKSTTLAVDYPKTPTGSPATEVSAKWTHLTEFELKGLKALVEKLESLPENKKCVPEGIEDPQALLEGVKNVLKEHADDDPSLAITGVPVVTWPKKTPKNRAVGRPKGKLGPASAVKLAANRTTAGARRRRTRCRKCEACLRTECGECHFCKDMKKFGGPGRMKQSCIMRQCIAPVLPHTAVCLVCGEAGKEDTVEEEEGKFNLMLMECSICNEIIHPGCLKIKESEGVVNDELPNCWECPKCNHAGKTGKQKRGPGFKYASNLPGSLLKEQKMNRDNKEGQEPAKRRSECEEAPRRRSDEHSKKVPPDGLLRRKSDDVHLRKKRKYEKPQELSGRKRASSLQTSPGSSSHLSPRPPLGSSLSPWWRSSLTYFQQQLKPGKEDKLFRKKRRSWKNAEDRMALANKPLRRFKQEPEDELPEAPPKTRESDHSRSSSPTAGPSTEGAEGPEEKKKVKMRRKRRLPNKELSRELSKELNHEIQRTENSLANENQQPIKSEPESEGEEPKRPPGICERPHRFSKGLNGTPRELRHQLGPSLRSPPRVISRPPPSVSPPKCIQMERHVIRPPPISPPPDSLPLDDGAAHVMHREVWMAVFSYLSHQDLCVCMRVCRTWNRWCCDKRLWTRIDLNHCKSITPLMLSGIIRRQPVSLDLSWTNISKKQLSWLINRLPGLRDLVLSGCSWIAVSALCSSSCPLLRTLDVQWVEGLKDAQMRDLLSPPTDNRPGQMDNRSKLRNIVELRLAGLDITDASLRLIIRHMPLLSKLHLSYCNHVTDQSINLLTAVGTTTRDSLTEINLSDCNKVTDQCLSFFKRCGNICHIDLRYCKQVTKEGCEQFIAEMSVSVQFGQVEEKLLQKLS

[2] = target: Lysine-specific demethylase 5A (Homo sapiens, UniProt P29375); test: Inhibition of KDM5A (1 to 1090 residues)(unknown origin) by Alphalisa assay
[3] = target: Lysine-specific demethylase 5B (Homo sapiens, UniProt Q9UGL1); test: Inhibition of KDM5B (1 to 809 residues)(unknown origin) by Alphalisa assay
[4] = target: Lysine-specific demethylase 5C (Homo sapiens, UniProt P41229); test: Inhibition of KDM5C (2 to 1560 residues)(unknown origin) by Alphalisa assay
[5] = target: Histone lysine demethylase PHF8 (Homo sapiens, UniProt Q9UPP1); test: Inhibition of PHF8 (1 to 1024 residues)(unknown origin) by Alphalisa assay
Histone lysine demethylase PHF8, sequence (Q9UPP1 whole entry, the tested form may be a part): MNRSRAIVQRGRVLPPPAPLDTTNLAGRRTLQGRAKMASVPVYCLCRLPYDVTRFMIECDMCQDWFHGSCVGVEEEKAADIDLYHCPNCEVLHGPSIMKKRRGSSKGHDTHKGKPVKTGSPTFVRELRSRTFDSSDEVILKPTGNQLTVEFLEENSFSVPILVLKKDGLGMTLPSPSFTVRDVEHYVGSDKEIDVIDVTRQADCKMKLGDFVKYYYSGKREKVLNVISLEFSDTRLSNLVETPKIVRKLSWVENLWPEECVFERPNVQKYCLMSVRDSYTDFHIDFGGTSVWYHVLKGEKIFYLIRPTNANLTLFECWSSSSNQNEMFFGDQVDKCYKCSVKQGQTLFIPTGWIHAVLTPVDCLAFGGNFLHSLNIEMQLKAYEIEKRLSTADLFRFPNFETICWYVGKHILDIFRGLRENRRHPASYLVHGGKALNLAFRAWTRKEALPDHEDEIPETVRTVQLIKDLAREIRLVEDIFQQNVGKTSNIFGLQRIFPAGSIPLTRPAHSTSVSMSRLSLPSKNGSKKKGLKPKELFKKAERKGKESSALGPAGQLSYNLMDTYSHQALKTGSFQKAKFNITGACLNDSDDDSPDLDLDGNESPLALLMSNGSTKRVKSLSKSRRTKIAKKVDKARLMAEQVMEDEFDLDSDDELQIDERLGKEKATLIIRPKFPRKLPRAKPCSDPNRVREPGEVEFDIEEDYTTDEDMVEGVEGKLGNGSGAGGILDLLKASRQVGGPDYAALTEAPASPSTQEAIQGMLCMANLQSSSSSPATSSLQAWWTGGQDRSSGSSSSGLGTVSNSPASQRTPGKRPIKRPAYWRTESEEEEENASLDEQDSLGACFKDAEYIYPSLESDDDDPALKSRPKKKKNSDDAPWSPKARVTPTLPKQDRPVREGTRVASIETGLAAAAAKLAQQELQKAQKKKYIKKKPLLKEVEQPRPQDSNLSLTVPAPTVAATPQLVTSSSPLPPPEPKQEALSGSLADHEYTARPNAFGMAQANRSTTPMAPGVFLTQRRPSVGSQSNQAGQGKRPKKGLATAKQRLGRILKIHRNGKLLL

Lysine-specific demethylase 5A, sequence (P29375 whole entry, the tested form may be a part): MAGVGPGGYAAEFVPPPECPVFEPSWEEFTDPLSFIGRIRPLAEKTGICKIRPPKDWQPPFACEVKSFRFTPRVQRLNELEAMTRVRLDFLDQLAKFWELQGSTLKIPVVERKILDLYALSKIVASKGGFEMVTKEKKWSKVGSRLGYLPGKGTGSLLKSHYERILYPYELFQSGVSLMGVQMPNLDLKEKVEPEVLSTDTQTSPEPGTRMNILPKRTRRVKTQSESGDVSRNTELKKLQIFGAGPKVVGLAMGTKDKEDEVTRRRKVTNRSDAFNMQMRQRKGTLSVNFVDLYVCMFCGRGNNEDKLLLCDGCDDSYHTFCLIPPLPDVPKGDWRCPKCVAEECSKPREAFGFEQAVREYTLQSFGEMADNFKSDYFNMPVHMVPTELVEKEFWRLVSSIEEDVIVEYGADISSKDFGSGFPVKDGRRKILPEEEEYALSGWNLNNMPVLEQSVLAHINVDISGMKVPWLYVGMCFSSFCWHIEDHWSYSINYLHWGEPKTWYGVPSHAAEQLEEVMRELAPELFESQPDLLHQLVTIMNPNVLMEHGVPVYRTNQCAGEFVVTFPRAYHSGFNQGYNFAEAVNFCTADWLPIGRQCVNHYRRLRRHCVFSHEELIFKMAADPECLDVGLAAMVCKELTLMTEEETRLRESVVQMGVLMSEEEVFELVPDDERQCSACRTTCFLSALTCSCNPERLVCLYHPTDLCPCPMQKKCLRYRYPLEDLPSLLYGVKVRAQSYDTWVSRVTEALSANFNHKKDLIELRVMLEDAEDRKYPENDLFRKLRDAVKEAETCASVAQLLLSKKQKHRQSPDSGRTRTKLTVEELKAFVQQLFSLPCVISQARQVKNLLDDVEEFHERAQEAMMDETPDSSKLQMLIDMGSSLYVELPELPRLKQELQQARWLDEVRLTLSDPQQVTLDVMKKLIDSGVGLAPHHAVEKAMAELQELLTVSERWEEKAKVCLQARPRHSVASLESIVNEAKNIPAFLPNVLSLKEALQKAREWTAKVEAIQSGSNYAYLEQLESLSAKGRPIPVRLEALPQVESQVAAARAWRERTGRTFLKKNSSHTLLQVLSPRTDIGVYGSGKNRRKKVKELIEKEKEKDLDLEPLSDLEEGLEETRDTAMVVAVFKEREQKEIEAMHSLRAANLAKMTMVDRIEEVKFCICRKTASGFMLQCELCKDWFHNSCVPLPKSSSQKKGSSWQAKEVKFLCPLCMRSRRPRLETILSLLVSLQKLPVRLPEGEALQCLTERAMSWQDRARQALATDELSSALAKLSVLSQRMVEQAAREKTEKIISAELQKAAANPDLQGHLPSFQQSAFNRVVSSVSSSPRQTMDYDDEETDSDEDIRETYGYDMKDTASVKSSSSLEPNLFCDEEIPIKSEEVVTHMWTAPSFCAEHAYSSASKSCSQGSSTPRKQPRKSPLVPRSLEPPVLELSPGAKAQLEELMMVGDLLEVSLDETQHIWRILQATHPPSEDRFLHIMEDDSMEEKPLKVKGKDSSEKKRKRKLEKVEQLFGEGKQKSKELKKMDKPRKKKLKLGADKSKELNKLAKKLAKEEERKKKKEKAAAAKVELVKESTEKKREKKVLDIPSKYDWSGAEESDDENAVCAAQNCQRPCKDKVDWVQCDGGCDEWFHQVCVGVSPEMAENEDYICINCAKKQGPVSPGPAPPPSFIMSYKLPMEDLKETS
Lysine-specific demethylase 5B, sequence (Q9UGL1 whole entry, the tested form may be a part): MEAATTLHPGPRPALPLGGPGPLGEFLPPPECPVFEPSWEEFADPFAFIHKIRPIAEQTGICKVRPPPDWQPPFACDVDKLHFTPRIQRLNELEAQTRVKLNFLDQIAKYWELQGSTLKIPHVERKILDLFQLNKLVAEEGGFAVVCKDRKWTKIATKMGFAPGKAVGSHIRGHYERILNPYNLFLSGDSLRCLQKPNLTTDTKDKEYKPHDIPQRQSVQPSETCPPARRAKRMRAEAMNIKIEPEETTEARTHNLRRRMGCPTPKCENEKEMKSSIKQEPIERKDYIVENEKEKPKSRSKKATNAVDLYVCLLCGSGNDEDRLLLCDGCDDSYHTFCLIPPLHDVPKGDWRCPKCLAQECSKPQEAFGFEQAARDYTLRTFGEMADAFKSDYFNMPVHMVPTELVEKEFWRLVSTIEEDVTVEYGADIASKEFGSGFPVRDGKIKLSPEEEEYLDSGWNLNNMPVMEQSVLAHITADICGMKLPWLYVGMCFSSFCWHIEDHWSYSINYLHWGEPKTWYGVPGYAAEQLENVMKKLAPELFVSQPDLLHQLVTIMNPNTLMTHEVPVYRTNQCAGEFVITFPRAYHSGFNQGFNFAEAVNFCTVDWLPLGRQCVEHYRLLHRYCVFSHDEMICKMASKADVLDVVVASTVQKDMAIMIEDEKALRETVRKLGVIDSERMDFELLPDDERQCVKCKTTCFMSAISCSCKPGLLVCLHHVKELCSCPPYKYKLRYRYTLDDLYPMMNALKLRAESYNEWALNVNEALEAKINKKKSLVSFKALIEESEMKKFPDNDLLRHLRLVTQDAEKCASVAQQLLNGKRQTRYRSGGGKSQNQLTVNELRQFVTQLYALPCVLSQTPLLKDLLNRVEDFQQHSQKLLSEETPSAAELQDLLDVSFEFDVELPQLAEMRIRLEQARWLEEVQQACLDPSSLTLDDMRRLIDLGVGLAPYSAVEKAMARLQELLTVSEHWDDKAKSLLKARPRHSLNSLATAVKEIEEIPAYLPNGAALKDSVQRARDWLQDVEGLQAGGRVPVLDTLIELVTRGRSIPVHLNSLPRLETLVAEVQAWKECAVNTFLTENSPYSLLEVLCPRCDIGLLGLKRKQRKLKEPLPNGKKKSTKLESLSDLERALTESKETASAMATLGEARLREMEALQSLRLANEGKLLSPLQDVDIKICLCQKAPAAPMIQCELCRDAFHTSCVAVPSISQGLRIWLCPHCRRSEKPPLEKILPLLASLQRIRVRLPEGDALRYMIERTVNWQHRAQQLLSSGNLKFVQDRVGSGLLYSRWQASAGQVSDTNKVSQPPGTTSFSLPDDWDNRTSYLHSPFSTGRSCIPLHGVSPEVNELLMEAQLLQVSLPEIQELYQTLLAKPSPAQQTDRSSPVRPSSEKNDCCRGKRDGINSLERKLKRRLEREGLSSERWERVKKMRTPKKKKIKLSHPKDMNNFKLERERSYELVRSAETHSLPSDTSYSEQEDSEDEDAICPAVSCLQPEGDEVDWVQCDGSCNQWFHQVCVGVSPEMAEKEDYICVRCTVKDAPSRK

IC50 [1]	IC50 [2]	IC50 [3]	IC50 [4]	IC50 [5]	Compound
8.3 µM	> 20 µM	33 µM	> 75 µM	17 µM	O=C(O)CCNc1cc(N2CCc3ccccc3CC2)nc(-c2cccnc2)n1
24 µM	> 50 µM	> 25 µM		> 25 µM	CCOC(=O)CCNc1cc(N2CCc3ccccc3CC2)nc(-c2cccnc2)n1
